The values that follow come from patent publication US20250019644A1, “Quantitatively Mapping Amino Acid Properties (QMAP) Cell Culture Media” (UNIVERSITY OF IOWA RESEARCH FOUNDATION, priority 2023, published 2025).

The test system of the assay is HCT116 cells. Description: Metabolic profiling of tryptophan metabolite-treated cells, LC-MS. The format is cell-based, human. The procedure:
[…] Cell plates were lyophilized overnight before metabolite extraction. To extract metabolites, 1 ml of an extraction buffer composed of 2:2:1 methanol/acetonitrile/water with internal standards at 1 μg/ml each (D4-Citric Acid, 13C5-Glutamine, 13C5-Glutamic Acid, 13C6-Lysine, 13C5-Methionine, 13C3-Serine, D4-Succinic Acid, 13C11-Tryptophan, and D8-Valine; Cambridge Isotope Laboratories) was added to the lyophilized cell samples. Cells were scraped for 20 seconds and collected into Eppendorf tubes, flash-frozen in liquid nitrogen, and sonicated for 10 minutes.
Samples were then placed on a rotating platform at −20° C. for 1 hour and centrifuged at 4° C. for 10 minutes at 21,000×g. 300 μL of the cleared metabolite extracts were transferred to fresh tubes for additional processing. An equal volume of each extract was pooled to serve as a quality control (QC) sample, which was analyzed at the beginning, end, and at a regular interval throughout an instrument run. Extraction buffer alone was analyzed as a processing blank sample. Metabolite extracts, the quality control sample, and the processing blank were evaporated to dryness using a speed-vacuum.
Dried extracts were reconstituted in 30 μL of acetonitrile/water (1:1, V/V), vortexed for 10 minutes, and incubated at −20° C. for 18 hours. Samples were then centrifuged at 4° C. for 2 minutes at 21,000×g and the supernatant was transferred to autosampler vials for analysis.
For LC chromatographic separation, 2 μL of reconstituted metabolite extracts, QC sample, and processing blank were run on a Millipore SeQuant ZIC-PHILIC (2.1×150 mm, 5 um particle size, Millipore Sigma #150460) column with a ZIC-PHILIC guard column (20×2.1 mm, Millipore Sigma #150437) attached to a Thermo Vanquish Flex UHPLC. The mobile phase comprised Buffer A [20 mM (NH4)2CO3, 0.1% NH4OH (v/v)] and Buffer B [acetonitrile]. The chromatographic gradient was run at a flow rate of 0.150 mL/min as follows: 0-20 min-linear gradient from 80 to 20% Buffer B; 20-20.5 min-linear gradient from 20 to 80% Buffer B; and 20.5-28 min-hold at 80% Buffer B. Data were acquired using a Thermo Q Exactive MS operated in full-scan, polarity-switching mode with a spray voltage set to 3.0 kV, the heated capillary held at 275° C., and the HESI probe held at 350° C. The sheath gas flow was set to 40 units, the auxiliary gas flow was set to 15 units, and the sweep gas flow was set to 1 unit. MS data acquisition was performed with polarity switching in a range of m/z 70-1,000, with the resolution set at 70,000, the AGC target at 10e6, and the maximum injection time at 200 ms. The QC sample was analyzed at the beginning and end of the LC-MS run and after every 10 samples.
Acquired LC-MS and GC-MS data were processed using the Thermo Scientific TraceFinder software. Targeted metabolites were identified by matching accurate mass and retention times to the University of Iowa Metabolomics Core Facility's in-house library of confirmed standards. After peak area integration by TraceFinder, NOREVA software was applied for signal drift correction on a metabolite-to-metabolite basis using the pooled QC sample that had been analyzed throughout the instrument run. Within individual samples, Post-NOREVA metabolite levels were divided by the total metabolite load (sum of all metabolite values) to equally weight individual metabolites for comparison across samples.

On to `N[C@@H](Cc1c[nH]c2ccccc12)C(=O)O` [tryptophan, L-tryptophan], for which the xanthommatin level entry (IFN-γ (50 ng/μL) for 24 hours, then tryptophan 1 mM for 6 hours, QMAP) is recorded as “only tryptophan metabolite to significantly increase”. The 3HK level result (tryptophan supplementation) is given as “not detectable”.
